“Also recorded” adds a separate entry of the source.

Data on one molecule can be found in patent US20220054494A1, “METHODS FOR TREATING BLADDER AND URETHRA DYSFUNCTION AND DISEASE” (University of Pittsburgh - Of the Commonwealth System of …, priority 2019, published 2022).

Assay type in all cases: in vivo, rat
One assay deals with p16. Nature of the assay: Western immunoblotting, senescence marker p16. The protocol: Western immunoblotting and transmission electron microscopy: Following these testing paradigms, rats were deeply anesthetized, bladders were removed, and one half of each bladder (using the smooth muscle layer) was homogenized using Lysing Matrix D in a FASTPREP-24™ instrument (MP BIOMEDICALS™, Solon, Ohio) in HBSS (5 mM KCl, 0.3 mM KH2PO4, 138 mM NaCl, 4 mM NaHO3, 0.3 mM Na2HCO3, 0.3 mM Na2HPO4, 5.6 mM glucose and 10 mM Hepes, pH 7.4) containing complete protease inhibitor cocktail (1 tablet/10 ml, ROCHE™, Indianapolis, Ind.) and phosphatase inhibitor cocktail (SIGMA®, 1:100). Whole rat kidney was also homogenized using the same procedure. After centrifugation (13000 rpm; 15 min at 4° C.), the membrane protein fraction was prepared by suspending the membrane pellets in lysis buffer containing 0.3 M NaCl, 50 mM Tris-HCl (pH 7.6), 0.5% Triton X-100, and the same concentration of protease inhibitors as above. […] The protein concentrations of the combined supernatants were determined using the PIERCE™ BCA protein assay (THERMO SCIENTIFIC™, Rockford, Ill.). […] As a loading control, total protein per sample was determined using BIO-RAD™ Stain Free SDS-PAGE gel technology. UV-activated protein fluorescence was imaged on a CHEMIDOC™ MP (BIO-RAD™). […] The volume (intensity) of each protein species was determined and normalized to total protein using Image Lab software (BIO-RAD™). […]
A general note: In western blotting, separated proteins are transferred to a membrane and probed.

A further assay deals with LC3. Kind of assay: Western immunoblotting, LC3 (lipidated form). The note with it: aged rats; oral 8-AG 5 mg/kg/day, 6 weeks. The protocol: (§1) Western immunoblotting: Following the testing paradigms, rats were deeply anesthetized, bladders as well as the proximal urethra were removed, and one half of each preparation was homogenized using Lysing Matrix D in a FastPrep 24 instrument (MP Biomedicals, Solon, Ohio) in HBSS [5 mM KCl, 0.3 mM KH2PO4, 138 mM NaCl, 4 mM NaHO3, 0.3 mM Na2HCO3, 0.3 mM Na2HPO4, 5.6 mM glucose, and 10 mM Hepes, pH 7.4 containing a complete protease inhibitor cocktail (1 tablet/10 ml, ROCHE®, Indianapolis, Ind.) and a phosphatase inhibitor cocktail (SIGMA®, 1:100)]. After centrifugation (13000 rpm; 15 min at 4° C.), the membrane protein fraction was prepared by suspending the membrane pellets in lysis buffer containing 0.3 M NaCl, 50 mM Tris-HCl (pH 7.6), and 0.5% Triton X-100 and the same concentration of protease inhibitors as above. The suspensions were incubated on ice and centrifuged (13000 rpm; 15 min at 4° C.). The protein concentrations of the combined supernatants were determined using the PIERCE® BCA protein assay (THERMO SCIENTIFIC®, Rockford, Ill.). […] As a loading control, total protein per sample was determined using Bio-Rad Stain Free SDS-PAGE gel technology. UV-activated protein fluorescence was imaged on a CHEMIDOC® MP (BIO-RAD®). […] The volume (intensity) of each protein species was determined and normalized to total protein using Image Lab software (BIO-RAD®).

For the next assay, the system named is α-SMA. Nature of the assay: Western immunoblotting, α-SMA. As to conditions: aged rats; oral 8-AG 5 mg/kg/day, 6 weeks. Here is the method:
as §1, with “software (BIO-RAD®). […]” for “software (BIO-RAD®).”

Consider `Nc1nc2[nH]c(N)nc2c(=O)[nH]1` [8-AG, 8-Aminoguanine], for which the “senescence marker p16 in bladder smooth muscle” value with p16 (aged Fisher 344 rats, 8-AG 5 mg kg/day via drinking water, 1 month) was “restored to a younger state; also recorded: restored to levels similar to the younger state”. Moreover, in the assay on p16 (aged rats, oral 8-AG 5 mg/kg/day, 6 weeks), the “senescence marker p16 in detrusor smooth muscle” value was “levels similar to the younger state; also recorded: restored these biomarkers to that of a younger state”. For the same molecule, the “LC3 (lipidated form) expression in detrusor” value in the assay on LC3 is recorded as “partially restores expression toward younger state; also recorded: trend toward reversal”. Also, in the assay on α-SMA, the “α-SMA expression in detrusor” value is listed as “increasing expression toward younger state; also recorded: normalized; also recorded: restored these biomarkers to that of a younger state” and the “α-SMA expression in urethra” value is “increasing expression toward younger state; also recorded: normalized to a younger state”.
